Measured values as given in patent US20120028265A1, “METHODS OF USING RET NANOSENSORS” (priority 2007, published 2012).

Tests used:
[1] = biological target: glucose nanosensor (not named in Example 9); settings: read-out: affinity constant for glucose
Description: The confidence range for calculation of intracellular glucose concentrations is determined by the quality of the recorded sensor response data. As a rule of thumb, data with standard deviations off ±2.5% and ±5% can be interpreted between 10% and 90% and between 20% and 80% saturation, respectively. Monitoring the sensor response in presence of alternating analyte concentrations yields information about transport and metabolism in the targeted subcellular compartment from (1) the intracellular accumulation rate upon addition of the analyte, which is composed of influx rate minus metabolism and export rates, (2) the elimination rate when the analyte is removed, which is composed of export plus metabolism minus influx, (3) the steady state level of the sensor response, in which influx equals metabolism and efflux, and (4) the time delay before a sensor response can be recorded, which represents differences in influx rates or metabolism.

[2] = biological target: FLII12Pglu700μ-δ6 glucose nanosensor (Escherichia coli, UniProt P0AEE5); assay type: binding; settings: read-out: Kd, affinity constant of nanosensor; used for theoretical saturation curve
Description: (A) Theoretical curve of glucose-induced FRET changes of FLII12Pglu700μ-δ6. […] Light gray shaded area indicates 10-90% confidence range of FLII12Pglu700μ-δ6 detection range, the dark gray shaded area indicates 20-80% confidence range. (B) Effect of the variation in ratio data (SD) on the determination of glucose concentrations. […] The calculated glucose concentration from the average of ratio data was set as 100%. In vivo glucose concentration was calculated from the equation: [gluc]vivo=Kd×(Δr−1)/(ΔRmax−Δr) with [G], glucose concentration; Kd, affinity constant of nanosenor; Δr, partial ratio change; ΔRmax, maximum ratio change. (C) Examples of in vivo glucose concentration dynamics upon cell perfusion and nanosenor range of FLII12Pglu700μ-δ6. The glucose concentration dynamics within the nanosenor range report differences in 1) accumulation rate, 2) elimination rate, 3) steady-state level, and 4) delay in nanosenor response. Gray lines indicate real in vivo glucose concentration dynamics and black lines indicate the nanosenor saturation of FLII12Pglu700μ-δ6. (D) In vivo glucose concentration-time plot (black line) with ratio ±SD and confidence range (grey lines) of FLII12Pglu700μ-δ6.

[3] = biological target: FLIParaF.Ec-200n, FRET nanosensor: E. coli K12 AraF (L-arabinose binding protein) fused between eCFP and Venus (Escherichia coli, UniProt P02924); test: In vitro FRET titration of purified arabinose nanosensor; settings: D/L-arabinose; apparent; purified sensor, 20 mM MOPS pH 7.0, Venus/eCFP emission ratio 528/485 nm, single-site isotherm
Description: The araF gene (EMBL: K00420) was amplified from Escherichia coli K12 genomic DNA using homologous primers, resulting in a PCR product that consisted of araF without stopcodon flanked by phage lambda attB recombination sites. The araF gene was fused between eCFP and Venus coding sequences of pGW1 through pDONR (Invitrogen) using […] (Invitrogen), respectively. The final construct was denoted pGW1araF.Ec and the correct sequence of the araF gene was verified by DNA sequencing (Sequetech). The gene product encoded on pGW1araF.Ec was denoted FLIParaF.Ec-200n.
The eCFP emission used for the ratio calculation was determined at 485 nm. Protein was diluted to give Venus/eYFP readouts of 20,000 to 30,000 at a manual gain between 70-75. By using the change in FRET ratio upon binding of ligand, affinity constants (Kd) were determined by fitting the titration curves to a single-site-binding isotherm:
R=Rapo+(Rsat−Rapo)·(n·[L])/(Kd+[L])
with [L], ligand concentration; n, number of equal binding sites; R, ratio; Rapo, ratio in the absence of ligand; and Rsat, ratio at saturation with ligand. Three independent protein preparations were analyzed and each protein preparation was analyzed in triplicate.

[4] = system: E. coli L-arabinose binding protein AraF, unmodified; settings: tryptophan fluorescence spectroscopy, read-out: affinity (Kd); cited from earlier work

FLIParaF.Ec-200n, FRET nanosensor: E. coli K12 AraF (L-arabinose binding protein) fused between eCFP and Venus, sequence (P02924 24-329): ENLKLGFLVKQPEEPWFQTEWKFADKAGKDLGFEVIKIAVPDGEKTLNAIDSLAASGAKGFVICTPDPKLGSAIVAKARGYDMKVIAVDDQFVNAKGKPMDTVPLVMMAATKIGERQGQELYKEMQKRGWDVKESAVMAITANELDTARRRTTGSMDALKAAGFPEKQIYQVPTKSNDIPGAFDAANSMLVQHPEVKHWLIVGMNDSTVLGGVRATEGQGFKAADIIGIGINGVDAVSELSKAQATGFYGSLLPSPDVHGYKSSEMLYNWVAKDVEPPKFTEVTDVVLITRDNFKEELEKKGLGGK
FLII12Pglu700μ-δ6 glucose nanosensor, sequence (P0AEE5 24-332 limits assumed): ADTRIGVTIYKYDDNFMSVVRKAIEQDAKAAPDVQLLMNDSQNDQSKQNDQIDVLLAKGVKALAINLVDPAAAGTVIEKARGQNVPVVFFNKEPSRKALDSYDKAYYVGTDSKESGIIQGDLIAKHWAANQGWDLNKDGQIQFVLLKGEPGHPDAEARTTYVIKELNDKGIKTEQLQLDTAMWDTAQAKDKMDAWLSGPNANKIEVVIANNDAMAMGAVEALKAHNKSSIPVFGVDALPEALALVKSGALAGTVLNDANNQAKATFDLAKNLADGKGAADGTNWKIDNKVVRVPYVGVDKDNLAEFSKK

SMILES: OC[C@H]1OC(O)[C@H](O)[C@@H](O)[C@@H]1O (stereo partly shown) [glucose]
- Kd [1]: 600 µM
- Kd [2]: 660 µM

SMILES: OC1COC(O)C(O)C1O (racemic) [D/L-arabinose]
- Kd [3]: 0.23 ± 0.018 µM

SMILES: OC1OC[C@H](O)[C@H](O)[C@H]1O (stereo partly drawn) [L-arabinose]
- Kd [4]: 0.098 ± 0.033 µM
